{"source": "patent US20240085403A1", "about": "“METHOD FOR INHIBITING ADVENTITIOUS VIRAL INFECTION” (Allogene Therapeutics, Inc., priority 2022, published 2024)", "key": {"[1]": {"tested_on": "HHV-6", "assay": "HHV-6 U65 gene copies by qPCR in iciHHV6 PBMCs treated with antiviral agents", "type": "cell-based, Human herpesvirus 6", "conditions": "15 days culture, concentrations of Table 2", "from_the_text": "(§1) We next examined the effects of other known antiviral agents on controlling HHV-6 reactivation using PBMCs with integrate HHV-6 genomes (iciHHV6) to mimic continuous low levels of HHV-6 infection. Ganciclovir, cidofovir and foscarnet are all small molecule inhibitors of HHV viral DNA polymerase. Artesunate is a small molecule antiviral agent targeting HHV immediate early genes. […] See e.g., hhv-6foundation.org/research/hhv-6-antiviral-drug-resistance; Reyman et al., 1995, Antiviral Res. 28:343-57; and Vittayawacharin et al., 2023, Transplant Cell Ther. 29:397. The cells were cultured in X-vivo supplemented media for three days before being split into 4 subcultures. Afterwards, cells were cultured for 15 additional days, with media exchange twice a week, each time containing a fresh dose of the same antiviral agent at the same initial concentration. Cell sampling was taken on different days after the antiviral agent was first added. The effect of the antiviral agent on the viability of cells were analyzed by using a cellular apoptosis screening kit (Thermo Cat #V13242),.\nNext, HHV-6 replication was analyzed by detecting copies of HHV-6 gene U65 by qPCR.\n(§2) Genomic DNA was extracted from cells and DNA levels of HHV-6 were determined by quantitative PCR (qPCR). The experiment was carried out using the ThermoFisher Scientific, TaqMan™ Fast Virus 1-Step Master Mix, (Catalog number: 4444434)."}, "[2]": {"tested_on": "HHV-6", "conditions": "in vitro anti-HHV-6 activity, literature; read-out: EC50 (Reyman 1995); cited from earlier work"}, "[3]": {"tested_on": "PBMCs with integrate HHV-6 genomes (iciHHV6)", "type": "cell-based, human", "from_the_text": "as §1"}, "[4]": {"tested_on": "HHV-6", "assay": "Timing of IFNα addition before HHV-6 infection, U100 and U79 transcripts by RT-qPCR", "type": "cell-based, Human herpesvirus 6", "method": "To mimic the rare reactivation event, PBMC-derived CAR T cells were infected with exogenous HHV-6 at an MOI of 0.4 on Day 8 of the small scale manufacturing process. Cells were treated with IFNα at a concentration of 1 ng/μL or 10 ng/μL on Day 0 (preactivation), Day 1 (activation), Day 4, or Day 6, or untreated throughout the process. All cultures were infected with HHV-6 on Day 8, regardless whether the cells were pre-treated with IFNα or left untreated.\nThe effects of IFNα on HHV-6 infection were analyzed in cells from two different donors. The transcripts of viral genes U100 (FIGS. 6A and 7A) and U79 (FIGS. 6B and 7B) were analyzed by RT-qPCR at the time points of three, seven and ten days post infection (i.e., on Day 11, Day 15 and Day 18 of the small scale manufacturing process). The y-axis reprepresents relative-fold change for each value compared to the endogenous GAPDH as well as untreated donor RNA (Day 0 before IFNα treatment)."}, "[5]": {"tested_on": "CAR T cells", "assay": "CAR T cell expansion, % CAR+ and phenotype under IFNα in the HHV-6 infection model", "conditions": "IFNα 0.1 ng/mL to 10 ng/mL, added Day 8 to Day 18"}, "[6]": {"tested_on": "CAR T cells"}, "[7]": {"tested_on": "HHV-6 viral antigen p41", "assay": "Small-scale CAR T process with HHV-6B infection, p41 viral antigen by flow cytometry", "type": "cell-based, human herpesvirus 6B (strain Z-29)", "conditions": "IFNα 0.1 ng/mL, D18, both donors", "from_the_text": "(§3) HHV-6 reactivation from PBMC is an extremely rare event in CAR T manufacturing based on existing data. To investigate the feasibility of using IFNα in controlling HHV-6 infectivity, we designed experiments to test the effects of IFNα in the manufacturing process by deliberately introducing active HHV-6 infection. In brief, the PBMCs from two different donors were thawed from frozen storage and cultured in complete media (5% HS+X-vivo+Supplements) for activation and LVV transduction. After electroporation of cells with TALEN mRNA, the T cells were infected with HHV-6B (strain Z-29) at MOI=0.4 for 3 hrs, then transferred to the G-Rex bioreactor for expansion for 10 days (Day 8 to Day 18). IFNα was added into the complete media at different concentrations (100 ng/mL, 10 ng/mL, 1 ng/mL and 0.1 ng/mL) on D8 after the 3 hrs of HHV-6 infection and kept in culture until the end of the expansion period. Cell samples were collected on D11, D13, D15 and D18, i.e., three, five, seven, and ten days post infection, to determine the HHV-6 virus infectivity by RT-qPCR assay (FIG. 4B), flow cytometry detection (FIG. 4C), and qPCR assay (FIG. 4D). […]\nHHV6 infectivity was determined by intracellular staining using antibody against HHV-6 p41 protein at 1 μg/mL and FACS analysis was performed to determine the percent of cells expressing the viral protein."}, "[8]": {"tested_on": "HHV-6B in CEM-HHV6 cells", "assay": "CEM-HHV6 latency/reactivation model, HHV-6 qPCR after sodium butyrate and PMA reactivation", "type": "cell-based, human herpesvirus 6B (strain Z-29)", "method": "We next tested whether viral reactivation can be induced in the latency cell culture model. CEM-HHV6 cells (1×10^7) were reactivated using 100 ng/mL of PMA (phorbol-12-myristate-13-acetate, Cat #500582 Millipore-Sigma) and 1 mM NaButyrate (Cat #19-137, Millipore-Sigma) final concentration for 2 days at 37° C. On day 2 cells were washed and resuspended in RPMI+5% FBS and cultured for 18 days. Media was replenished as needed. CEM-HHV6 cells were collected on days 5, 8, 12, 14, 16, and 19 post-reactivation. HHV-6B viral reactivation was assessed by qPCR analysis of the vgDNA of HHV-6B targeting the U31 and U65-66 genes. Untreated CEM-HHV6 cells were used as a negative control.\nThe CEM-HHV6 reactivation model described in FIGS. 2A-F was utilized for testing the effects of IFNα in the cell culture model, similar to the testing carried out in DP (FIG. 1A). CEM-HHV6 cells were initially cultured in bulk before the start of the experiment. One day before the start of the experiment (D-1), an aliquot of the CEM-HHV6 cells was taken out and split before treatment with one of three IFNα concentrations (100 ng/mL, 1 ng/mL and 0.01 ng/mL), which constituted the “pre-treatment” of IFNα. Cells were collected from the beginning of the experiment (D0) and continuing every few days throughout. […]"}, "[9]": {"tested_on": "HHV-6B (strain Z-29)", "assay": "Small-scale CAR T process with HHV-6B infection, U31 DNA by qPCR", "type": "cell-based, human herpesvirus 6B (strain Z-29)", "conditions": "IFNα 0.1 ng/mL, process D18", "from_the_text": "as §3, with “4D). Description of RT-qPCR assay, flow cytometry, and genomic DNA qPCR assay are shown in Materials & Methods.” for “4D).”\nGenomic DNA was extracted from cells and DNA levels of HHV-6 were determined by quantitative PCR (qPCR). […]"}, "[10]": {"tested_on": "HHV-6", "assay": "HHV-6 U31 viral DNA by qPCR in thawed CAR T drug product cultured with IFNα", "type": "cell-based, Human herpesvirus 6", "conditions": "both lots of DP (Batch 1 HHV-6 high, Batch 2 low); IFNα 0.01, 1, 100 ng/mL; D1-D7", "from_the_text": "Drug product (DP) for experiment was selected based on the results of screening for HHV-6, among other adventitous agents, at the end of cell engineering process. Batch #1 was one of a few rare occurrences of DP with “positive” levels of HHV-6 and was chosen for the following studies (designated as the “HHV-6 high” group), while Batch #2 was chosen as the “low”-level counterpart. DP vials were retrieved from LN2, thawed and each split into 4 day 0 (D0) flasks. We first tested the effects of a type I IFN, such as IFNα, on the replication and infectivity of HHV-6. Flasks received either complete media (X-vivo +5% human serum (HS)+supplements) or complete media with added IFNα (human IFN-α2a at 100 ng/mL, 1 ng/mL and 0.01 ng/mL, Miltenyi). Cells were cultured for 7 additional days (D1-D7), with daily collections of cells from all conditions for freezing. Media was replaced every three days, with or without added IFNα for corresponding flasks.\nPost-cell culture, DNA was extracted from the collected samples, and analyzed by qPCR for HHV-6 marker U31 as described in Material & Methods.\nas §2"}, "[11]": {"tested_on": "HHV-6 p41", "assay": "Immunofluorescence of HHV-6 p41 protein in CAR T drug product culture", "type": "cell-based, Human herpesvirus 6", "experimental": "To test whether HHV-6 protein expression is affected by IFNα treatment, we performed immunofluorescence using an antibody specific for HHV-6 p41, an HHV-6 early gene product, on cells collected from D4 of the Batch 1 (“HHV-6 high”) DP culture.\nThe cells were fixed with 4% paraformaldehyde and permeabilized using 0.5% saponin before incubating with HHV6 p41 antibody conjugated with Alexa-488 at 0.2 μg/mL. Cells were stained with DAPI prior to imaging at 20× magnification."}, "[12]": {"tested_on": "HHV-6B (strain Z-29)", "assay": "Small-scale CAR T process with HHV-6B infection, viral RNA (U79, U90, U100) by RT-qPCR", "type": "cell-based, human herpesvirus 6B (strain Z-29)", "from_the_text": "as §3\nTotal RNA was extracted from cells and analyzed using reverse transcription qPCR (RT-qPCR) assay for U79, U90, U100 and GAPDH genes to determine HHV-6 infectivity."}, "[13]": {"tested_on": "HHV-6", "assay": "Timing of IFNα addition before HHV-6 infection, viral DNA by qPCR", "type": "cell-based, Human herpesvirus 6", "conditions": "data not shown"}}}
{"molecule": "Nc1ccn(C[C@@H](CO)OCP(=O)(O)O)c(=O)n1", "note": "[Cidofovir, cidofovir]", "values": [{"measurement": "HHV-6 levels (U65 gene copies by qPCR)", "setting": "[1]", "result": "increased HHV-6 levels over the culture period"}, {"measurement": "EC50", "setting": "[2]", "result": "12 to 15", "unit": "µM"}, {"measurement": "cell health / apoptosis", "setting": "[3]", "result": "induced higher level of apoptosis"}]}
{"molecule": "C[C@H]1[C@H](OC(=O)CCC(=O)O)O[C@@H]2O[C@@]3(C)CC[C@H]4[C@H](C)CC[C@@H]1[C@@]24OO3", "note": "[Artesunate]", "values": [{"measurement": "HHV-6 levels (U65 gene copies by qPCR)", "setting": "[1]", "result": "increased HHV-6 levels over the culture period"}, {"measurement": "EC50", "setting": "[2]", "result": 3.8, "unit": "µM"}, {"measurement": "cell health / apoptosis", "setting": "[3]", "result": "induced higher level of apoptosis"}]}
{"molecule": "IFNα: human IFN-α2a (Miltenyi), a type I IFN; exemplary sequence SEQ ID NO: 19/20", "values": [{"measurement": "U79 transcript", "setting": "[4]; IFNα added on Day 4 or Day 6 (samples C5-C8)", "result": "decreased transcript"}, {"measurement": "U100 transcript level", "setting": "[4]; IFNα added on Day 6 (conditions C7, C8; 10 and 1 ng/μL), infection Day 8, compared to C9", "result": "greatest reduction of U100 transcript level"}, {"measurement": "fold of CAR T cell expansion", "setting": "[5]", "result": "did not significantly affect"}, {"measurement": "proliferation of CAR-T cells", "setting": "[6]", "result": "could suppress the proliferation"}, {"measurement": "HHV-6 viral antigen p41 expression", "setting": "[7]", "result": "effectively reduced"}, {"measurement": "viral DNA, reactivated (RA) versus non-reactivated (NRA) samples", "setting": "[8]; IFNα 100 ng/mL", "result": "virtually no distinction between the NRA and the RA samples"}, {"measurement": "level of viral growth (HHV-6 DNA qPCR)", "setting": "[8]; as the IFNα dosage increased (0.01, 1, 100 ng/mL), pre- or post-treatment", "result": "the level of viral growth was reduced"}, {"measurement": "decrease of HHV-6 DNA levels (U31)", "setting": "[9]", "result": "16 to 38", "unit": "fold"}, {"measurement": "HHV-6 viral DNA (U31) fold-change relative to D0", "setting": "[10]", "result": "reduction in the viral load compared to the control"}, {"measurement": "cells positive for HHV-6 p41 (immunofluorescence)", "setting": "[11]; Batch 1 (HHV-6 high) DP culture, D4, increasing concentration of IFNα", "result": "fewer cells positive for HHV-6 p41"}, {"measurement": "cells positive for HHV-6 p41 (immunofluorescence)", "setting": "[11]; batch 2 (HHV-6 low) culture, D4, regardless of concentration used, data not shown", "result": "no detectable HHV-6 p41 positive cells"}, {"measurement": "HHV-6 viral RNA", "setting": "[12]; IFNα 10 ng/mL, D18", "result": "below detectable levels"}, {"measurement": "HHV-6 RNA levels (U79, U90, U100)", "setting": "[12]; donor #1, lowest concentration of IFNα, D11 to D18", "result": "decreased from D11 to D18"}, {"measurement": "viral load as determined by qPCR", "setting": "[13]; IFNα added on Day 6 (C7, C8)", "result": "lowest level of viral load"}, {"measurement": "suppression of HHV-6 infection (U31 DNA qPCR)", "setting": "[13]; doses of IFNα added closer to infection", "result": "strongest suppression effect"}]}
{"molecule": "Nc1nc2c(ncn2COC(CO)CO)c(=O)[nH]1", "note": "[Ganciclovir, ganciclovir]", "values": [{"measurement": "HHV-6 levels (U65 gene copies by qPCR)", "setting": "[1]", "result": "decreased viral load initially followed by an increase at later time points"}, {"measurement": "EC50", "setting": "[2]", "result": "> 25", "unit": "µM"}, {"measurement": "cell health / apoptosis", "setting": "[3]", "result": "did not negatively affect cell health"}]}
{"molecule": "O=C(O)P(=O)(O)O", "note": "[Foscarnet, foscarnet]", "values": [{"measurement": "HHV-6 levels (U65 gene copies by qPCR)", "setting": "[1]", "result": "maintain the HHV-6 levels at around their starting level"}, {"measurement": "EC50", "setting": "[2]", "result": 8.4, "unit": "µM"}, {"measurement": "cell health / apoptosis", "setting": "[3]", "result": "did not negatively affect cell health"}]}
